Experimental data published in ChEMBL document CHEMBL3585279, “Novel 2,5-disubtituted-1,3,4-oxadiazoles with benzimidazole backbone: a new class of β-glucuronidase inhibitors and in silico studies” (Bioorg Med Chem, 2015).

Biological target: T1, Beta-glucuronidase (Homo sapiens, UniProt P08236)
T1 sequence (P08236 whole entry): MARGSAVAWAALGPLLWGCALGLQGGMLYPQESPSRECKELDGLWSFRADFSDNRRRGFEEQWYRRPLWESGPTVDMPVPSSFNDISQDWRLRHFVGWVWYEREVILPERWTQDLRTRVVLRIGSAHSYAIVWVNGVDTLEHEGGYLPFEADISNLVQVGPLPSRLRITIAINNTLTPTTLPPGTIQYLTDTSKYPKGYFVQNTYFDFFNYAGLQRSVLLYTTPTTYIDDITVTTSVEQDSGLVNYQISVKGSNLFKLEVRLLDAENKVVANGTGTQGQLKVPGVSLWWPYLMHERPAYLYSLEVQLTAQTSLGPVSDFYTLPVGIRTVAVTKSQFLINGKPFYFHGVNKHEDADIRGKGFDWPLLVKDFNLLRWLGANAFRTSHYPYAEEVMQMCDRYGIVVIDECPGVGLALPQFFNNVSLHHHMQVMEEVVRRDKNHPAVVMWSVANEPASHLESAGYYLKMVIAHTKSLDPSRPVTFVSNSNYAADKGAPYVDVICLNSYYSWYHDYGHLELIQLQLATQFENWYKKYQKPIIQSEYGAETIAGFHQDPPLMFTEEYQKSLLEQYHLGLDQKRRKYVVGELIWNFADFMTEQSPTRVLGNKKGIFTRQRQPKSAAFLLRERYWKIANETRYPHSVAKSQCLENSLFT
Description: Inhibition of beta-D-glucuronidase (unknown origin) assessed as reduction in p-nitrophenol formation using p-nitrophenyl-beta-D-glucuronide substarte incubated at 37 degC for 30 mins by spectrophotometric method

| IC50 | SMILES |
| --- | --- |
| Not Active | Cc1cccc(-c2nnc(-c3ccc(-c4nc5cc(C)c(C)cc5[nH]4)cc3)o2)c1 |
| Not Active | Cc1cc2nc(-c3ccc(-c4nnc(-c5ccccc5C)o4)cc3)[nH]c2cc1C |
| Not Active | COc1ccc(-c2nnc(-c3ccc(-c4nc5cc(C)c(C)cc5[nH]4)cc3)o2)cc1 |
